In US4929633A, “Actinonin derivatives having physiological activities” (Zaidan Hojin Biseibutsu Kagaku Kenkyu Kai, priority 1987, dated 1990):
Entries after “also recorded” stand apart in the source; their conditions may differ.

What was measured:
[1] = biological target: angiotension-conversion enzyme (ACE) (Homo sapiens, UniProt P12821); experiment: ACE-inhibitory activity (method of Analytical Biochemistry 84, 361 (1978)); type: biochemical
Text: The enzyme-inhibitory activity of the test compounds against ACE were estimated in accordance with a method as described in the literature "Analytical Biochemistry", 84, 361 (1978).

[2] = biological target: T1, post-proline-cleaving enzyme (PPCE) (Sus scrofa, UniProt P23687); experiment: PPCE-inhibitory activity (substrate Z-Gly-Pro-PNA); type: biochemical, swine; conditions: for IC50: 37° C., 15 minutes, PPCE from swine kidney
T1 construct: PPCE used was an enzyme preparation made from swine kidney; from tissue; host or cells: swine kidney, ammonium sulfate fractionation and DEAE-Sephadex chromatography
Description: The enzyme-inhibitory activities of these test compounds against PPCE were estimated by adding a substrate compound of the formula [drawing 18] namely, N-benzyloxycarbonyl-glycyl-prolyl-p-nitroanilide (Z-Gly-Pro-PNA) to a solution of an enzyme, then adding to the solution each test compound having the enzyme-inhibiting activity to be assayed, reacting the substrate, the enzyme and the test compounds with each other at 37° C. for 15 minutes and then measuring the consumed amount of the substrate in terms of the determined reduction in the absorbency of a ultraviolet ray of a given wave length which transmitted the reaction solution where the substrate compounds, the enzyme and the enzyme-inhibiting test compound have been reacted with each other. In these tests, PPCE used was an enzyme preparation made from swine kidney and prior to its use, was purified by fractionation with ammonium sulfate and by subsequent chromatography on DEAE-Sephadex agent.

peptidases = conditions: Journal of Antibiotics 38, 1629-1630 (1985); cited from earlier work
[3] = U.S. Pat. No. 3,240,787; cited from earlier work
[4] = Kokai No. 15840/86; U.S. Pat. No. 4,663,342; cited from earlier work
[5] = tested on: enkephalin-degrading enzymes; conditions: Kokai No. 4228/87; cited from earlier work
[6] = Kokai No. 4228/87; cited from earlier work
[7] = tested on: experimental amnesia in mice; experiment: step-down type passive avoidance response test, cycloheximide-induced amnesia in mice; type: in vivo, mouse (male ddy-mice); conditions: for Residence time: 24 h, max 300 s, control mice 220 ± 37
Description: These experiments were performed using male ddy-mice having an average body weight of 25 g as the test animal. A platform in cubic form having a length of 4 cm for each side of the cube was arranged in a cage on the floor of the cage. Each mouse was placed on the platform. An electric current-feeding device had been provided on the floor area of the cage which positioned outside the platform. It was so arranged that whenever the mouse descended onto the floor from the platform, a 60 V electric current was caused to pass through the floor for 0.5 second to shock the mouse so as to have the mouse learn the shocking passage of electric current. Immediately after the mouse's learning, the mouse was subcutaneously administered with 30 mg/kg of cycloheximide so as to induce experimental amnesia. Each test compound had been intraperitoneally administered to the mouse at a time of 15 minutes before the mouse's learing was commenced. Upon an elapsed time of 24 hours after the completion of the mouse's learning for the electric current passage, the mouse treated as above was again placed on the same platform in the same cage under the same conditions, and the residence time of the mouse staying on the platform was measured under a pre-requisit that a maximum residence time as determined was set to be up to 300 seconds.
The results of the experiments for the cycloheximide-induced amnestic mice as treated by the previous intraperitoneal administration of the test compound of this invention are summarized in Table 2 below.

Chain of angiotension-conversion enzyme (ACE) (P12821 30-1306, species assumed): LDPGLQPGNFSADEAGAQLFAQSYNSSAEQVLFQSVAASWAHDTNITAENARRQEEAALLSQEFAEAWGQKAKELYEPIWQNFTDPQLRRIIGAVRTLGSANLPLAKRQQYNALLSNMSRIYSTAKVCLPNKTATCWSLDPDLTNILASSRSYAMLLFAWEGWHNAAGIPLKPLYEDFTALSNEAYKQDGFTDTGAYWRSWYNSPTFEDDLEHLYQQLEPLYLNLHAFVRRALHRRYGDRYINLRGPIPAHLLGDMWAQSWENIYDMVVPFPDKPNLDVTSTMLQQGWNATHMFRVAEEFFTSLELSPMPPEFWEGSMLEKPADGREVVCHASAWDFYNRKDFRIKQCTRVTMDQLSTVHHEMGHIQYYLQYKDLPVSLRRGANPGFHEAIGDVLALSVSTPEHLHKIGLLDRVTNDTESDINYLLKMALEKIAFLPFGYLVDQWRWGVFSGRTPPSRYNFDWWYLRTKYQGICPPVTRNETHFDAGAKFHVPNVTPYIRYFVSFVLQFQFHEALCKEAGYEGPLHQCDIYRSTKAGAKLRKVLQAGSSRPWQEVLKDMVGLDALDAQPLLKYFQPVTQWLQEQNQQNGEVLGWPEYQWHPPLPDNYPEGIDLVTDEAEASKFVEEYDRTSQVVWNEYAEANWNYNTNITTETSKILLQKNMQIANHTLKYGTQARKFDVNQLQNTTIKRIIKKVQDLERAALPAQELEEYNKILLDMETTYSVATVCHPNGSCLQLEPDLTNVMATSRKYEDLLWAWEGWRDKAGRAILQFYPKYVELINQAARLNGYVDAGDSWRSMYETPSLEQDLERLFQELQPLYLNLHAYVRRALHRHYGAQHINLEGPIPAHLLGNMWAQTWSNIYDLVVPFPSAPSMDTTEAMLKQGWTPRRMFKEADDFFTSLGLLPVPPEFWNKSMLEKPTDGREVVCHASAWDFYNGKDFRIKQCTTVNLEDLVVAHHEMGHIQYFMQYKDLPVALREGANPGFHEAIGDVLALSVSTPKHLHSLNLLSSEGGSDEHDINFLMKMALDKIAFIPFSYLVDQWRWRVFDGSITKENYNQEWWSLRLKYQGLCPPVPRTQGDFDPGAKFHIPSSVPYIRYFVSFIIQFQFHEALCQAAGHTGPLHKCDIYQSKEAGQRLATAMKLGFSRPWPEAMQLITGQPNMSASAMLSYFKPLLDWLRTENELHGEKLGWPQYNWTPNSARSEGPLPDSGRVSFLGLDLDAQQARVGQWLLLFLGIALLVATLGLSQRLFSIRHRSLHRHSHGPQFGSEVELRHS
T1 sequence (P23687 whole entry): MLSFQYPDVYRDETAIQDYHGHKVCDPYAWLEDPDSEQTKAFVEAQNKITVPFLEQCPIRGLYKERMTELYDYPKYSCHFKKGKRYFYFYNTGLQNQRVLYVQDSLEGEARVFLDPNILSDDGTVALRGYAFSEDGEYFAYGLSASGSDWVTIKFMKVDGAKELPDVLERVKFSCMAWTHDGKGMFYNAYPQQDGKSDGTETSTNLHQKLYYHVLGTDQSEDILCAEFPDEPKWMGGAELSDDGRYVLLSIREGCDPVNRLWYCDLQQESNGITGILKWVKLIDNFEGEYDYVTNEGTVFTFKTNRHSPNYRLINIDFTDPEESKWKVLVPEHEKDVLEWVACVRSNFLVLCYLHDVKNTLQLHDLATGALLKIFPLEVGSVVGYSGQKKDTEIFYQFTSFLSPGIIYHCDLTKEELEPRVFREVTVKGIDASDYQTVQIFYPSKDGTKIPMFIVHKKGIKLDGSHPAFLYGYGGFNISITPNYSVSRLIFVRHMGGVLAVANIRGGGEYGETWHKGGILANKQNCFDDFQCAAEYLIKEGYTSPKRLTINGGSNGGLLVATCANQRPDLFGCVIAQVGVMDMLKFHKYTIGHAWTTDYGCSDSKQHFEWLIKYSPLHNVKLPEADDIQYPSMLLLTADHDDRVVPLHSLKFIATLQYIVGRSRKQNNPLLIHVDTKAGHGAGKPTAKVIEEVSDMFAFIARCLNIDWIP

Row | SMILES | ACE-inhibitory activity (in words) [1] | IC50 [1] [µM] | PPCE-inhibitory activity (in words) [2] | IC50 [2] [µM] | also measured
1 | CCCCC[C@H](CC(=O)NO)C(=O)N[C@H](C(=O)N1CCC[C@H]1CO)C(C)C [Actinonin] | medium enzyme-inhibitory activity; also recorded: medium enzyme-inhibitory activities | 37.9 | medium enzyme-inhibitory activity; also recorded: medium enzyme-inhibitory activities | 77.8 | inhibition of peptidases (in words) (peptidases): inhibit a wide variety of peptidases; antibacterial activity (in words) [3]: antibacterial activity; immunopotentiating activity (in words) [4]: immunopotentiating activity; inhibition of the enkephalin-degrading enzymes (in words) [5]: can inhibit the enkephalin-degrading enzymes; anodyne activity (in words) [6]: anodyne activity
2 | CCCCC[C@H](CC(=O)O)C(=O)N[C@H](C(=O)N1CCC[C@H]1CO)C(C)C [Compound of the Formula (III), (2S)-2-pentylsuccinyl-L-valyl-L-prolinol] | – | > 135 | – | > 135 | –
3 | CCCCC[C@H](CC(=O)O)C(=O)N[C@H](C(=O)N1CCC[C@H]1C=O)C(C)C [Example 1, (2S)-2-pentylsuccinyl-L-valyl-L-prolinal] | – | > 136 | – | 0.0841 | –
4 | CCCCC[C@H](CC(=O)OCC)C(=O)N[C@H](C(=O)N1CCC[C@H]1C=O)C(C)C [Example 2, (2S)-3-Ethoxycarbonyl-2-pentylpropionyl-L-valyl-L-prolinal] | no enzyme-inhibitory activity against ACE | > 126 | strong PPCE-inhibitory activity | 0.0555 | Residence time ([7]; 3 mg/kg i.p. 15 min before learning, cycloheximide 30 mg/kg s.c., n=9, cycloheximide alone 114 ± 26): 188 ± 35 s; Residence time ([7]; 10 mg/kg i.p. 15 min before learning, cycloheximide 30 mg/kg s.c., n=9, cycloheximide alone 114 ± 26): 180 ± 26 s; therapeutic effects to treat the experimental amnesia (in words) ([7]; cycloheximide-induced amnesia, mice): marked therapeutic effects
5 | C[C@@H]1C[C@@H]([C@H](O)CC2CC(=O)NC(=O)C2)C(=O)[C@@H](C)C1 [cycloheximide] | – | – | – | – | Residence time ([7]; cycloheximide alone (comparative), 30 mg/kg s.c. after learning, n=10): 114 ± 26 s
